Data reported in publication PMC12072186, “A Novel Small Molecule Enhances Stable Dopamine Delivery to the Brain in Models of Parkinson’s Disease” (International Journal of Molecular Sciences, 2025).

Key:
human alpha-synuclein = test: Western blot of soluble brain extracts for alpha-synuclein; assay type: in vivo, mouse; details: young TgA53T mice (6–7 months old), vs D5 and DMSO
Method: The concentration of CNS alpha-synuclein via ELISA was reduced in the brain lysates of old (11–12-month-old) TgA53T mice treated with Pegasus compared to DMSO-treated controls (Figure 5I).
To extract the soluble proteins, whole brain tissues, which excluded the olfactory bulb, cerebellum, and spinal cord, were isolated and homogenized in 1 × STEN buffer (50 mM Tris (pH 7.6), 150 mM NaCl, 2 mM EDTA, 0.2% NP-40, 0.2% BSA, 20 mM PMSF, and protease cocktail inhibitor). The proteins were quantified and normalized for WB (and ELISA) on 4–12% Criterion™ XT Bis-Tris Protein Gel (Cat No: 3450125, Bio-rad, Hercules, CA, USA). Beta-actin (β-actin) was probed (1:3000) with monoclonal antibody (Cat No: MAB1501R, Emdmillipore, Danvers, MA, USA). Human alpha-synuclein was probed (1:4000) with monoclonal antibody (Cat No: AHB0261, Thermo Fisher, Waltham, MA, USA). Human oligomeric alpha-synuclein was probed (1:500) with anti-alpha-synuclein oligomer-specific syn33 antibody (Cat No: ABN2265, Sigma-Aldrich, St. Louis, MO, USA). WBs were quantified by densitometry using Quantity One 4.6.3 software (Bio Rad, Hercules, CA, USA) and Image J version 1.54m.

astrocyte (GFAP) = test: GFAP immunohistochemistry of astrocytes; assay type: in vivo, mouse
Method: (§1) Neuroinflammation is one of the most important pathogeneses in PD in addition to alpha-synuclein aggregation. To examine the effects of Pegasus on glial cell activation, we performed immunohistochemistry of astrocyte and microglia from the brains of treated vs. untreated young (6–7-month-old) and old (12–13-month-old) TgA53T mice.
Animals were deeply anesthetized with a mixture of Xylazine and Ketamine (8:80 mg/kg), washed with normal saline for 1 min, and then perfused with 4% paraformaldehyde (PFA) for 15 min. The brains were dissected out and immediately stored in 4% PFA for 24 h at 4 °C, and then transferred to 30% sucrose at 4 °C for 48 h. The brains were cut using a cryostat microtome into 20 µm thick coronal sections and stored at −20 °C. Staining for tyrosine hydroxylase (TH) was probed with anti-tyrosine hydroxylase antibody (Cat No: AB152, Sigma-Aldrich, St. Louis, MO, USA). GFAP (glial fibrillary acidic protein) was stained with anti-GFAP monoclonal antibody (Cat No:MS1376P1, Fisher Scientific, Newington, NH, USA). […] TH^+ cells were counted in a stereology-like manner across multiple visual fields (typically 20 fields) in a single animal, and the same procedure was repeated on several animals to obtain the best approximation of TH staining.

TgA53T mice [1] = test: Rotarod test in TgA53T mice; assay type: in vivo, mouse
microglia (IBA1) = test: IBA1 immunohistochemistry of microglia; assay type: in vivo, mouse; details: young and old TgA53T mice, vs DMSO
Excerpt: as §1

[2] = test system: MPTP-treated C57BL/6 mice; test: Grip strength test in MPTP-treated mice; assay type: in vivo, mouse; details: MPTP 25 mg/kg i.p. day 1–5; treatment day 1–13; vs MPTP vehicle control
Method: MPTP was injected to male C57BL/6 mice for 5 consecutive days (Figure 4A) to destroy DA neurons, and then the mice were treated with Pegasus alone or Pegasus + Benserazide compared to L-dopa alone or L-Dopa + Benserazide.
From day 1 to day 5, MPTP was administered to all the groups except Naive at a dose of 25 mg/kg, i.p., QD. Treatment with Pegasus alone (50 mg/kg, i.p., BID), a combination of Pegasus 50 mg/kg, BID + Benserazide 10 mg/kg, QD, or a combination of L-Dopa 10 mg/kg, QD + Benserazide 10 mg/kg, QD or standalone L-Dopa 10 mg/kg, QD, started on day 1 and continued until day 13. On day 13, after the first dose of Pegasus, 4 animals/time point from each group were sacrificed at 0.5, 1, 3, 6, and 12 h, and the blood and brains were collected.
The maximal muscle/grip strength of forelimbs was measured using a strength meter.

TgA53T mice [3] = test: Tolerated dose, dose escalation study; assay type: in vivo
Method: Pegasus synthesis and the D5 control derivative of tetracycline were previously described. Pegasus is a 652.2 Da small molecule that consists of one DA conjugated to tetracycline via a molecular linker (Figure 1A). […] We determined a tolerated dose of Pegasus in young (6–7 months old) and old (11–12 months old) TgA53T mice (IP, once daily) treated with an ascending dose of Pegasus of 10 mg/kg, 50 mg/kg, and 75 mg/kg for 4 consecutive days (Figure 1B). Pegasus was tolerated up to 75 mg/kg without visible adverse effects. […] We then reduced the dose to 75 mg/kg for another week.
Tissue toxicity was assessed in young (6–7-month-old) and old (12–13-month-old) A53T mice. The mice received daily i.p. escalating doses of Pegasus or control D5 (tetracycline derivative with no DA) vs. DMSO of 10, 25, 50, and 100 mg/kg for 4 days with each dose up to 16 days, and tissues were analyzed via caspase-3 activity. The caspase-3 activity assay (EnzChek® Invitrogen, Waltham, MA, USA) was conducted according to manufacturer’s protocols as we previously described.

## C[C@H]1c2ccc(NC(=O)CCC(=O)NCCc3ccc(O)c(O)c3)c(O)c2C(=O)C2=C(O)[C@]3(O)C(=O)C(C(N)=O)=C(O)CC3[C@@H](O)C21 (stereo partly shown) [Pegasus]
Human alpha-synuclein
  Monomeric alpha-synuclein level (WB): significant decreases
  Oligomeric alpha-synuclein level (WB): significant decreases
Astrocyte (GFAP); including the SN and cortex
  GFAP staining in other brain regions: not appreciably different
Astrocyte (GFAP); young (6–7-month-old) TgA53T mice, 50 mg/kg i.p., vs DMSO
  GFAP astrocyte reactivity in the hippocampus: significant reduction in astrocyte reactivity
TgA53T mice [1]; 50 mg/kg for 3 weeks, TgA53T mice
  Duration of improved Rotarod motor performance: up to 6.5 h
TgA53T mice [1]; 1–2 h post-injection, 50 mg/kg i.p. daily, 12–13 months old TgA53T mice, vs DMSO
  Rotarod motor performance: significantly improves motor performance
TgA53T mice [1]; 2–3 h, 3–4 h and up to 5–6.5 h post-injection, 50 mg/kg i.p. daily, vs DMSO
  Rotarod motor behavior: continues to improve motor behavior
Microglia (IBA1)
  IBA1 staining in the hippocampus: No differences in IBA1 staining
[2]
  Forelimb grip strength: significantly reversed back to normal levels
TgA53T mice [3]; 50 mg/kg, mice
  Visible side effects at 50 mg/kg: no visible side effects
TgA53T mice [3]; 100 mg/kg, male and female 12–13 months old mice
  Adverse effects at 100 mg/kg: some scruffiness and weakness at Day16, and one mouse showed gut toxicity at autopsy
TgA53T mice [3]; TgA53T, mouse, in vivo, ip, 4 days per dose level
  Tolerated dose: up to 75 mg/kg
TgA53T mice [3]; dose reduced to 75 mg/kg for another week
  Adverse effects at autopsy after dose reduction: no adverse effects were detected
